Values quoted from earlier work as cited in patent US20110165235A1, “DIRECTLY PRESSED ALISKIREN TABLETS” (ratiopharm GmbH, priority 2008, published 2011).

Conditions: BCS classification

solubility: high
SMILES: COCCCOc1cc(C[C@@H](C[C@H](N)[C@@H](O)C[C@H](C(=O)NCC(C)(C)C(N)=O)C(C)C)C(C)C)ccc1OC [Aliskiren, (2S,4S,5S,7S)-5-amino-N-(2-carbamoyl-2-methyl-propyl)-4-hydroxy-7-{[4-methoxy-3-(3-methoxypropoxy)phenyl]methyl}-8-methyl-2-propan-2-yl-nonanamide]
